Test systems include K562; SW-620; MDA-MB-435; COLO 205; SK-MEL-5; NCI-H226; NCI-H23; CAKI-1; 786-0; U-251; SK-OV-3; LOX IMVI; MDA-N; HCC 2998; MOLT-4; TK-10; RXF 393; EKVX; PC-3; HL-60.
Holding throughout (experiment): NCI anticancer screen, dose series, 48 h

Data on eleven compounds can be found in ChEMBL document CHEMBL1201862, “PubChem BioAssay data set” (2004).

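Method: 48-hour compound exposure of cells in 96-well plates, five concentrations, linear interpolation of endpoints. GI50: concentration for 50% inhibition of growth.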 The source made the active and inactive calls. Rule as the data show it: active = GI50 up to about 1.1 µM and inactive = higher.

With `COc1ccc(NCc2cnc3nc(N)nc(N)c3c2C)cc1`, the GI50 was 0.0486 µM (active) with K562; 0.914 µM (active) in the assay on SW-620; 0.428 µM (active) in the assay with MDA-MB-435; 9.35 µM (inactive) with COLO 205; 0.419 µM (active) with SK-MEL-5; 33.7 µM (inactive) in the assay with NCI-H226. Besides, the GI50 in the assay with NCI-H23 was 0.628 µM (active); with CAKI-1, 6.55 µM (inactive); in the assay on 786-0, 0.254 µM (active); in the assay on U-251, 0.555 µM (active); with SK-OV-3, 4.34 µM (inactive); in the assay with LOX IMVI it was 0.316 µM (active). The GI50 is 0.174 µM (active) with MDA-N; 12.7 µM (inactive) in the assay with HCC 2998; 0.493 µM (active) in the assay on MOLT-4; 41.4 µM (inactive) with TK-10; 43.5 µM (inactive) in the assay with RXF 393; 15.7 µM (inactive) with EKVX.
With `COC(=O)C(NC(=O)C(CC(=O)OC(C)(C)C)NC(=O)OC(C)(C)C)C(O)c1ccccc1` (configuration not stated), the GI50 with K562, with SW-620, with MDA-MB-435, in the assay with COLO 205, in the assay on SK-MEL-5 and in the assay on NCI-H226 was > 100 µM (inactive) each time. The GI50 with NCI-H23 is > 100 µM (inactive); in the assay with CAKI-1 it was > 100 µM (inactive); in the assay on 786-0 it was > 100 µM (inactive); in the assay with U-251, > 100 µM (inactive); in the assay on SK-OV-3, 16.1 µM (inactive); in the assay with LOX IMVI, > 100 µM (inactive). Moreover, the GI50 was > 100 µM (inactive) in the assay on MDA-N; > 100 µM (inactive) in the assay on MOLT-4; > 100 µM (inactive) with TK-10; 97.5 µM (inactive) in the assay on RXF 393; > 100 µM (inactive) in the assay on PC-3; > 100 µM (inactive) in the assay with EKVX.
Regarding `O=C(CC(=O)N1N=C(N(c2ccccc2)c2ccccc2)CC1c1ccccc1)Nc1ccccc1` (configuration not stated), the GI50 with K562, in the assay with SW-620, in the assay with MDA-MB-435, in the assay on COLO 205, with SK-MEL-5 and in the assay with NCI-H226 was > 100 µM (inactive) in each case. Also, the GI50 with NCI-H23 is > 100 µM (inactive); in the assay on CAKI-1, > 100 µM (inactive); with HL-60, > 100 µM (inactive); with 786-0, 81.7 µM (inactive); in the assay on U-251 it was 56.6 µM (inactive); in the assay on SK-OV-3, 80.9 µM (inactive). Besides, the GI50 in the assay with HCC 2998 was > 100 µM (inactive); in the assay on MOLT-4, 7.31 µM (inactive); with TK-10 it was > 100 µM (inactive); in the assay with RXF 393, 49.8 µM (inactive); with PC-3, > 100 µM (inactive); in the assay on EKVX, > 100 µM (inactive).
Consider `Nc1ccccc1-n1c2c(c3ccccc3c1=O)C(=O)c1ccccc1-2`, for which the GI50 in the assay on K562 was > 100 µM (inactive); in the assay on SW-620 it was 14.5 µM (inactive); in the assay on MDA-MB-435, 57.9 µM (inactive); with COLO 205 it was 26.1 µM (inactive); in the assay with SK-MEL-5, 10.4 µM (inactive); in the assay on NCI-H226 it was < 0.01 µM (active). In addition, the GI50 was 7.5 µM (inactive) with NCI-H23; 16.7 µM (inactive) in the assay on CAKI-1; 0.046 µM (active) in the assay with HL-60; 7.62 µM (inactive) in the assay on 786-0; 15.2 µM (inactive) in the assay on U-251; 6.98 µM (inactive) in the assay on SK-OV-3. Besides, the GI50 is 12.5 µM (inactive) in the assay with LOX IMVI; 21.8 µM (inactive) with HCC 2998; 4.25 µM (inactive) in the assay with MOLT-4; > 10 µM (inactive) in the assay on TK-10; 16.1 µM (inactive) in the assay with PC-3; 27.6 µM (inactive) with EKVX.
In the case of `CC(C)OC(=O)[C@H]1ON2O[C@H](O[C@@H]3CCCC[C@H]3c3ccccc3)C([Si](C)(C)c3ccccc3)[C@H]3OC(=O)[C@@H]1C32` (some centres not stated), the GI50 in the assay on K562 is 34 µM (inactive); with SW-620, > 100 µM (inactive); in the assay on MDA-MB-435, > 100 µM (inactive); in the assay on COLO 205, > 100 µM (inactive); with SK-MEL-5, > 100 µM (inactive); in the assay with NCI-H226, > 100 µM (inactive). In addition, the GI50 with NCI-H23, in the assay with CAKI-1, in the assay with HL-60, in the assay with 786-0, in the assay on U-251 and in the assay with SK-OV-3 was > 100 µM (inactive) in each case. Moreover, the GI50 was > 100 µM (inactive) in the assay with LOX IMVI; > 100 µM (inactive) with HCC 2998; 18.7 µM (inactive) with MOLT-4; > 100 µM (inactive) with TK-10; > 100 µM (inactive) with RXF 393; > 100 µM (inactive) in the assay on PC-3. For the same compound, the GI50 in the assay with EKVX was > 100 µM (inactive).
With `NC(=O)C1=NNc2ccccc2C(=O)N1c1ccccc1`, the GI50 with SW-620, in the assay with MDA-MB-435, with COLO 205, in the assay on SK-MEL-5, in the assay on NCI-H226 and with CAKI-1 was > 100 µM (inactive) each time. Also, the GI50 with 786-0, in the assay on U-251, with SK-OV-3, in the assay with LOX IMVI, in the assay with MDA-N and in the assay with MOLT-4 was > 100 µM (inactive) in each case. Further, the GI50 in the assay with TK-10, in the assay with RXF 393, in the assay on PC-3 and with EKVX was > 100 µM (inactive) each time.
Turning to `O=c1[nH]nc(-c2ccccc2)c2[nH]c(-c3ccccc3)cc12`, the GI50 is 50.8 µM (inactive) in the assay on K562; > 100 µM (inactive) with SW-620; > 100 µM (inactive) in the assay with MDA-MB-435; > 100 µM (inactive) with COLO 205; > 100 µM (inactive) in the assay on NCI-H23; > 100 µM (inactive) in the assay on CAKI-1. In addition, the GI50 is > 100 µM (inactive) in the assay on HL-60; > 100 µM (inactive) in the assay on 786-0; > 100 µM (inactive) with SK-OV-3; > 100 µM (inactive) in the assay with LOX IMVI; > 100 µM (inactive) with MDA-N; 39 µM (inactive) in the assay with MOLT-4. Further, the GI50 in the assay with RXF 393 and in the assay with EKVX was > 100 µM (inactive) each time.
As for `O=C1OCC2=Nc3cccc4cccc(c34)N12`, the GI50 in the assay with K562, with SW-620, with MDA-MB-435, in the assay on COLO 205, with SK-MEL-5 and with NCI-H226 was > 100 µM (inactive) each time. In addition, the GI50 in the assay with NCI-H23, in the assay with CAKI-1, in the assay on HL-60, in the assay on 786-0, in the assay on U-251 and in the assay with SK-OV-3 was > 100 µM (inactive) in each case. The GI50 in the assay with LOX IMVI, in the assay on HCC 2998, in the assay with MOLT-4, in the assay on TK-10, with RXF 393 and in the assay with PC-3 was > 100 µM (inactive) in each case. Also, the GI50 in the assay with EKVX is 57.1 µM (inactive).
For the compound `COc1cc2c(cc1OC)-c1[nH]c3ccc(C#N)cc3c1CC(=O)N2`, the GI50 in the assay on SW-620 was 1.03 µM (active); with MDA-MB-435 it was 8.79 µM (inactive); with COLO 205, 0.463 µM (active); in the assay on SK-MEL-5, 3.23 µM (inactive); in the assay with NCI-H226 it was 3.8 µM (inactive); in the assay on NCI-H23, 12.2 µM (inactive). In addition, the GI50 in the assay with CAKI-1 was 1.56 µM (inactive); in the assay on HL-60, 3.07 µM (inactive); in the assay with 786-0 it was 3.68 µM (inactive); with U-251, 2.61 µM (inactive); with SK-OV-3, > 100 µM (inactive); in the assay on LOX IMVI, 2.09 µM (inactive). The GI50 was 2.48 µM (inactive) with MDA-N; 2.65 µM (inactive) in the assay on MOLT-4; > 27 µM (inactive) with TK-10; 57.5 µM (inactive) with PC-3; 22.2 µM (inactive) in the assay with EKVX.
`BrC(c1cccc2ccccc12)c1cccc2ccccc12`: the GI50 in the assay with K562 is > 100 µM (inactive); in the assay with SW-620 it was 16.7 µM (inactive); with MDA-MB-435, 7.23 µM (inactive); with SK-MEL-5 it was 17.5 µM (inactive); in the assay on NCI-H226, 17.2 µM (inactive); in the assay with NCI-H23 it was 19.9 µM (inactive). Moreover, the GI50 is 22.2 µM (inactive) in the assay with CAKI-1; 20 µM (inactive) with HL-60; 13.7 µM (inactive) with 786-0; 16.9 µM (inactive) in the assay on U-251; 15.8 µM (inactive) in the assay with LOX IMVI; 15.1 µM (inactive) in the assay with MDA-N. For the same compound, the GI50 was > 100 µM (inactive) in the assay on MOLT-4; 29 µM (inactive) with TK-10; 13.6 µM (inactive) in the assay on RXF 393; 22.1 µM (inactive) with PC-3; 16.7 µM (inactive) in the assay with EKVX.
`O=C(CCCn1ccnc1[N+](=O)[O-])NCCn1cnc([N+](=O)[O-])n1`: the GI50 in the assay with K562, with SW-620, in the assay on MDA-MB-435, in the assay on COLO 205, in the assay on SK-MEL-5 and in the assay on NCI-H226 was > 100 µM (inactive) throughout. Besides, the GI50 with NCI-H23, with CAKI-1, in the assay on HL-60, in the assay on 786-0, with U-251 and in the assay with SK-OV-3 was > 100 µM (inactive) each time. In addition, the GI50 in the assay with LOX IMVI, with MDA-N, with MOLT-4, with TK-10, in the assay on RXF 393 and in the assay with PC-3 was > 100 µM (inactive) each time.
